Legend:
Mus musculus [1] = test: Tested in vivo for times to mm**3 tumor volume against BALB/c mice bearing COLO-26 tumors at a dose 3.25 mg/Kg; assay type: functional
Colon 26 [2] = test: Lethal dose required for photodynamic therapy against COLO-26 cells in culture; assay type: toxicity, cell-based
Mus musculus [3] = test: Tested in vivo for times to mm**3 tumor volume against BALB/c mice bearing COLO-26 tumors at a dose 10 mg/Kg; assay type: functional
Murine T-cell line = test: Compound at >50 ug/mL was tested for photoactivity against murine T-cell line; No significant photoactivity; assay type: functional, cell-based; conditions: Mus musculus
Colon 26 [4] = test: Photodynamic therapy against COLO-26 cells in culture; assay type: cell-based; conditions: Mus musculus, Colon 26, light or radiation study; read-out: LD50 (the source's name)

SMILES | Time (Mus musculus [1]) | CC50 (Colon 26 [2]; Mus musculus, Colon 26, light or radiation study, read-out: LD50 (the source's name)) | LD90 (Colon 26 [2]; mouse) | Time (Mus musculus [3]) | NS (Murine T-cell line) | CC50 (Colon 26 [4])
O=S(=O)([O-])c1ccc(-c2c3nc(c(-c4ccc(S(=O)(=O)[O-])cc4)c4ccc(s4)c(-c4ccc(S(=O)(=O)[O-])cc4)c4nc(c(-c5ccc(S(=O)(=O)[O-])cc5)c5ccc2s5)C=C4)C=C3)cc1.[Na+].[Na+].[Na+].[Na+] | 198 h | < 25 mg/L | > 50 µg/mL | 276 h | No significant photoactivity | –
O=S(=O)([O-])c1ccc(-c2c3nc(c(-c4ccc(S(=O)(=O)[O-])cc4)c4ccc([nH]4)c(-c4ccc(S(=O)(=O)[O-])cc4)c4ccc([nH]4)c(-c4ccc(S(=O)(=O)[O-])cc4)c4nc2C=C4)C=C3)cc1.[Na+].[Na+].[Na+].[Na+] | – | – | – | – | No significant photoactivity | > 100 mg/L
